Assay results from patent publication US6436905B1, “Lipid-containing compositions and uses thereof” (Aston University, priority 1997, dated 2002).
Each block holds one compound with its values, some of them ahead of it.

Assay: Pulsating bubble surfactometry: minimum surface tension and time to reach it
Type: physicochemical
From the text: One of the most important properties of the polymer/phospholipid complexes in accordance with the invention, especially for use as artificial lung surfactants, is the manner in which the surface tension varies with repetitive changes in surface area, and one test method that has been used is a pulsating bubble technique using a pulsating bubble surfactometer which consists of a sample chamber, pulsator unit and pressure-recording device. In a particular example, the sample chamber is made up of a capillary tube (ID 0.5 mm) inserted into a wider diameter tube (ID 1.5 mm). The latter is filled with the sample liquid and connected to a pulsator unit and pressure transducer. Air is drawn in through the capillary tube which acts as an airways forming a bubble of air within the sample chamber. This bubble serves as a model alveolus. […] Variations of pressure within the bubble, during each pulsation cycle, are measured by a transducer and combined with values of bubble volume to calculate changes in surface tension.
This pulsating bubble technique simulates to some extent the contraction and expansion of the alveoli sacks in the lungs and allows the surface tension to be assessed at minimum and maximum bubble volumes, and allows the effect of repeated expansion and compression cycles upon the adsorption of surface active components to be observed and quantified. This technique has been used as a model in vitro system for testing the efficacy of synthetic lung surfactants. Some results of tests carried out not only on the complexes prepared in accordance with the invention, but also on the membrane-forming phospholipids used and the polymers themselves, as well as on commercially available lung surfactants, are summarised in the Tables at the end of the present description.
Showing minimum Surface Tension (ST) value achieved and time to reach this level.
Pulse Rate (PR)=34, Temp=Room Temp & pH=7.0 unless otherwise stated.

[1] = 1.0%, pH 3.22, PR = 12, room temp
[2] = 1.0%, pH 7.0 (default), PR 34, room temp, 2 hrs hydration
[3] = 1.0%, pH 7.0 (default), PR 34, room temp, 12 hr hydration
[4] = 1.0%, pH 9.33, PR = 12, room temp
[5] = 1.0%, pH 12.00, PR 34, room temp
[6] = […], pH 7.0 (default), PR 34, room temp, Sonicated
[7] = LALE 1.0%, pH 7.0 (default), PR 34, room temp
[8] = DLPC (fresh) sonicated 0.5, pH 3.92, 24.0 °C, pulse rate 30/min
[9] = DLPC (fresh) 0.5, pH 7.12, 25.1 °C, pulse rate 30/min
[10] = DPPC 0.5, pH 4.1, 21.9 °C, pulse rate 30/min
[11] = DPPC (fresh) 0.5, pH 6.3, 24.9 °C, pulse rate 30/min
[12] = DPPC sonicated 0.5, pH 7.3, 23.1 °C, pulse rate 30/min
[13] = DPPC sonicated 0.5, pH 7.3, 37.5 °C, pulse rate 30/min
[14] = DPPC sonicated 0.5, pH 7.3, 24.0 °C, pulse rate 30/min
[15] = DPPC sonicated 0.5, pH 7.3, 37.5 °C, after 40 mins at room temp, pulse rate 30/min

Compound: CCCCCCCCCCCC(=O)OC[C@H](COP(=O)([O-])OCC[N+](C)(C)C)OC(=O)CCCCCCCCCCC [DLPC, Dilaurylphosphatidylcholine]
Minimal ST [1]: 6.39 dynes/cm | Time to Develop [1]: 30 min | Minimal ST [2]: 6.82 dynes/cm | Time to Develop [2]: 20 min | Minimal ST [3]: 24.89 dynes/cm | Time to Develop [3]: 30 min | Minimal ST [4]: 15.66 dynes/cm | Time to Develop [4]: 30 min | Minimal ST [5]: 15.10 dynes/cm | Time to Develop [5]: 30 min | Minimal ST [6]: 9.60 dynes/cm | Time to Develop [6]: 30 min

Minimal ST [7]: 22.61 dynes/cm | Time to Develop [7]: 30 min
Compound: CCCCCCCCCCCCOC(=O)CCCCCCCCCCC [LALE, Lauric acid lauryl ester]

Compound: CCCCCCCCCCCC(=O)OC[C@H](COP(=O)([O-])OCC[N+](C)(C)C)OC(=O)CCCCCCCCCCC [dlf5]
Time to Develop (DLPC (fresh) 0.5, pH 5.47, 24.0 °C, pulse rate 30/min, first line): 20 min | Minimal ST <10 dynes/cm (DLPC (fresh) 0.5, pH 5.47, 24.0 °C, pulse rate 30/min, first line (time 20)): 12.57 dynes/cm | Time to Develop (DLPC (fresh) 0.5, pH 5.47, 24.0 °C, pulse rate 30/min, second line): 40 min | Minimal ST <10 dynes/cm (DLPC (fresh) 0.5, pH 5.47, 24.0 °C, pulse rate 30/min, second line (time 40)): 0.04 dynes/cm

Compound: CCCCCCCCCCCC(=O)OC[C@H](COP(=O)([O-])OCC[N+](C)(C)C)OC(=O)CCCCCCCCCCC [dlfs4]
Minimal ST <10 dynes/cm [8]: 1.67 dynes/cm | Time to Develop [8]: 10 min

Compound: CCCCCCCCCCCC(=O)OC[C@H](COP(=O)([O-])OCC[N+](C)(C)C)OC(=O)CCCCCCCCCCC [dlfs7]
Minimal ST <10 dynes/cm [9]: 18.25 dynes/cm | Time to Develop [9]: 20 min

Minimal ST <10 dynes/cm [10]: 5.31 dynes/cm | Time to Develop [10]: 30 min
Compound: CCCCCCCCCCCCCCCC(=O)OC[C@H](COP(=O)([O-])OCC[N+](C)(C)C)OC(=O)CCCCCCCCCCCCCCC [dlpf4]

Minimal ST <10 dynes/cm [11]: 16.18 dynes/cm | Time to Develop [11]: 30 min
Compound: CCCCCCCCCCCCCCCC(=O)OC[C@H](COP(=O)([O-])OCC[N+](C)(C)C)OC(=O)CCCCCCCCCCCCCCC [dlpf6]

Minimal ST <10 dynes/cm [12]: 20.36 dynes/cm | Time to Develop [12]: 40 min
Compound: CCCCCCCCCCCCCCCC(=O)OC[C@H](COP(=O)([O-])OCC[N+](C)(C)C)OC(=O)CCCCCCCCCCCCCCC [dlpf7]

Minimal ST <10 dynes/cm [13]: 26.58 dynes/cm | Time to Develop [13]: 2 min
Compound: CCCCCCCCCCCCCCCC(=O)OC[C@H](COP(=O)([O-])OCC[N+](C)(C)C)OC(=O)CCCCCCCCCCCCCCC [dp7st]

Minimal ST <10 dynes/cm [14]: 9.99 dynes/cm | Time to Develop [14]: 20 min | Minimal ST <10 dynes/cm [15]: 27.95 dynes/cm | Time to Develop [15]: 40 min
Compound: CCCCCCCCCCCCCCCC(=O)OC[C@H](COP(=O)([O-])OCC[N+](C)(C)C)OC(=O)CCCCCCCCCCCCCCC [dpf7s]
